Reference: patent US8957106B2, “Iminosugar treatment of tumors” (The Chancellor, Masters and Scholars of the University of …, priority 2007, dated 2015)
Where two headings read alike, the source gives them in different places.

Columns and labels:
B16F10 melanoma cells = assay: MTS cell viability assay, B16F10; format: cell-based, murine; settings: Mus musculus, B16-F10, B16F10, 24 h, read-out: IC50
Procedure: (§1) Cells were cultured at indicated densities for 24 h, medium was removed and the incubation was continued in a fresh culture medium containing various GC2 or DTIC concentrations. In control experiments, cells were grown in a culture medium containing GC2 buffer.
(§2) The standard […] (MTS)-3-(4,5-dimethylthiazol-2-yl)-5-(3-carboxymethoxyphenyl)-2-(4-sulphophenyl)-2H-tetrazolium inner salt solution assay was performed in order to examine the cytotoxic/cytostatic effect of GC2 on melanoma cells. Briefly, 7.5×10^3 cells were seeded in 96-well microtiter plates (Nunc). After an overnight incubation, serial dilutions of GC2 or DTIC were added in triplicate to a final volume of 100 μl. The blank was represented by a culture medium without cells containing the highest GC2 or DTIC concentration. After 24 h of incubation 20 μl MTS was added to each well and all samples were incubated for 3 h at 37° C. An absorbance of each well was read at 450 nm in a microplate reader. A percentage of cell viability was calculated considering that 100% cell viability was represented by an absorbance of untreated samples […]. Alternatively, the number of viable cells was determined by Trypan blue exclusion test. Melanoma cells treated with GC2 were trypsinized and cells negative for blue staining (viable cells) were counted using a hemocytometer. […]

MNT-1 melanoma cells = assay: MTS cell viability assay, MNT-1; format: cell-based; settings: Homo sapiens, MNT-1, 24 h, read-out: IC50
Procedure: as §1, §2

MelJuSo melanoma cells = assay: MTS cell viability assay, MelJuSo; format: cell-based; settings: Homo sapiens, MEL-JUSO, 24 h, read-out: IC50
Procedure: as §1, §2

[1] = read-out: IC50 doses reported by other in vitro studies, cited from earlier work
SKMel28 melanoma cells = assay: MTS cell viability assay, SKMel28; format: cell-based; settings: Homo sapiens, SK-MEL-28, SKMel28, 24 h, read-out: IC50
Procedure: as §1, §2

B16D2 melanoma cells = assay: MTS cell viability assay, B16D2; format: cell-based; settings: B16D2, 24 h, read-out: IC50
Procedure: as §1, §2

Row | IC50 (B16F10 melanoma cells) | IC50 (MNT-1 melanoma cells) | IC50 (MelJuSo melanoma cells) | IC50 (SKMel28 melanoma cells) | IC50 (B16D2 melanoma cells) | SMILES | IC50 ([1]; literature data (Lev et al. 2004)) | IC50 ([1]; literature data)
1 | 3 to 4 mM | 3 to 4 mM | 3 to 4 mM | 3 to 4 mM | 3 to 4 mM | CN(C)N=Nc1[nH]cnc1C(N)=O [DTIC, 5-(3,3-dimethyl-1-triazeno)-imidazole-4-carboxamide, reference compound] | 1000 µM | –
2 | – | – | – | – | – | CCCCCCCCCCCCC/C=C/[C@@H](O)[C@H](CO)NC(C)=O [C2-ceramide] | – | 100 µM
